ChEMBL document CHEMBL1221220, “Transport and signaling via the amino acid binding site of the yeast Gap1 amino acid transceptor” (Nat Chem Biol, 2009)
Residue numbers refer to the chain shown, from its start. Calls of active or inactive are those of the source. The rule behind the calls is not given here.

Key:
[1] = tested on: T1, General amino-acid permease GAP1 (Saccharomyces cerevisiae), P19145 [A403C]; test: Induction of yeast Gap1 A403C mutant-mediated […] activation at 2 mM in presence of 10 mM MTSEA treated before compound addition
T1 sequence (whole entry): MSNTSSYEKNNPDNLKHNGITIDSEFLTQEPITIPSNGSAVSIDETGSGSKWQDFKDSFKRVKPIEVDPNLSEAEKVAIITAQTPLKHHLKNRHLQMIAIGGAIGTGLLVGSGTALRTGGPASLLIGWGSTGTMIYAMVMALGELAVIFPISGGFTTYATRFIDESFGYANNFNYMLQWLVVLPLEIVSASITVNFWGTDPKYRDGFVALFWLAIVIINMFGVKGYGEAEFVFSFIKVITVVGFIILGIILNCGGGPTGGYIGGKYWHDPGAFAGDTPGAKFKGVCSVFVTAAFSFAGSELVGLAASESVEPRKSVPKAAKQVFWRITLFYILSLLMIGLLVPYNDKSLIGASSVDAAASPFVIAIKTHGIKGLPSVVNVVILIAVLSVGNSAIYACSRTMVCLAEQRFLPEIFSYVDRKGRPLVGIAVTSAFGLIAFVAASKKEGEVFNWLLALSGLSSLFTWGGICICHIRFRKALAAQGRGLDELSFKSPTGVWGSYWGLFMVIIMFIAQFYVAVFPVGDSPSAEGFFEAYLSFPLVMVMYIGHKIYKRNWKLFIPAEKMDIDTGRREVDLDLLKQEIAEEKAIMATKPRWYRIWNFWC

[2] = tested on: T2, General amino-acid permease GAP1 (Saccharomyces cerevisiae), P19145 [A393C]; test: Activation of yeast Gap1 A393C mutant-mediated amino acid uptake at 10 mM
T2 sequence (whole entry): T1 sequence (whole entry) with A393C, C403A

[3] = tested on: General amino-acid permease GAP1 (Saccharomyces cerevisiae), P19145 [V402C]; test: Inhibition of yeast Gap1 V402C mutant-mediated amino acid uptake at 10 mM
[4] = tested on: T3, General amino-acid permease GAP1 (Saccharomyces cerevisiae), P19145 [T400C]; test: Induction of yeast Gap1 T400C mutant-mediated trehalose activation at 2 mM in presence of 10 mM MTSEA treated before compound addition
T3 sequence (whole entry): T1 sequence (whole entry) with T400C, C403A

[5] = tested on: T4, General amino-acid permease GAP1 (Saccharomyces cerevisiae), P19145 [I382C]; test: Activation of yeast Gap1 I382C mutant-mediated amino acid uptake at 10 mM
T4 sequence (whole entry): T1 sequence (whole entry) with I382C, C403A

[6] = tested on: General amino-acid permease GAP1 (Saccharomyces cerevisiae), P19145 [S392C]; test: Inhibition of yeast Gap1 S392C mutant-mediated amino acid uptake at 10 mM
Sequence of General amino-acid permease GAP1 (Saccharomyces cerevisiae), P19145 [S392C] (P19145 whole entry S392C): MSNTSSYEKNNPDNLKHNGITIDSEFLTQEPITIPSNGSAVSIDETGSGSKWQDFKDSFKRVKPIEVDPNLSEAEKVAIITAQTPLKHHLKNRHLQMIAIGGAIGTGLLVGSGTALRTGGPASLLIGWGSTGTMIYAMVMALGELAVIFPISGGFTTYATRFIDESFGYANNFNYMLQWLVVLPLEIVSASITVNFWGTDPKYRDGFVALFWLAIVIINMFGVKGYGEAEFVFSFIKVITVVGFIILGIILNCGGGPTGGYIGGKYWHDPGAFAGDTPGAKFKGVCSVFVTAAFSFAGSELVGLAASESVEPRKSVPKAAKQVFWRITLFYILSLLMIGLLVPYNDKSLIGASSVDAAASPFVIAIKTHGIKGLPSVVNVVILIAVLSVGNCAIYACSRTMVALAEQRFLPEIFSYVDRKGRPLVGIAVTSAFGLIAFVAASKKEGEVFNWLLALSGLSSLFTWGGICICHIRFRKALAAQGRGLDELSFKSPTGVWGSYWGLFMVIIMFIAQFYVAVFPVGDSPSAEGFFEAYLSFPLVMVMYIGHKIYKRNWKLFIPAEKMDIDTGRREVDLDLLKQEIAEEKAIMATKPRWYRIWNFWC

Sequence of General amino-acid permease GAP1 (Saccharomyces cerevisiae), P19145 [V402C] (P19145 whole entry V402C): as the sequence (P19145 whole entry S392C) above, with C392S, V402C counted along it

inhibition [1]: Active
Activity [2]: inactive
inhibition [3]: Active
inhibition [4]: Active
Activity [5]: inactive
inhibition [6]: Active
Compound: NC(=O)NCCC[C@H](N)C(=O)O
